Several values for one entry are separate records, joined by “and”; a condition that tells them apart may be missing. Equal entries are not always repeated. Results filed as inconclusive are left out.
System: CD8F1 mice, subcutaneous mammary adenocarcinoma, T/C%
Experiment: NCI In Vivo Anticancer Drug Screen. Data for tumor model Mammary Adenocarcinoma CD8F1 (subcutaneous) in CD8F1
Details: higher = larger tumour
Procedure: The antitumor activity of compounds was measured in mice bearing transplantable tumors. Survival or tumor size were measured and the results are expressed as the measurement made in the treated group (T) divided by the measurement made in the vehicle treated control group (C). The tumor model used in this assay is Mammary Adenocarcinoma CD8F1 (subcutaneous) in CD8F1

[1] = endpoint: median tumor weight (est.), dose: 50.0 mg/kg/injection, schedule: Q07DX005 (ip), vehicle: Klucel (hydroxypropylcellulose) (HPC)
[2] = endpoint: median tumor weight (est.), dose: 100.0 mg/kg/injection, schedule: Q07DX005 (ip), vehicle: Klucel (hydroxypropylcellulose) (HPC)
[3] = endpoint: median tumor weight (est.), dose: 200.0 mg/kg/injection, schedule: Q07DX005 (ip), vehicle: Klucel (hydroxypropylcellulose) (HPC)
[4] = endpoint: median tumor weight (est.), dose: 12.5 mg/kg/injection, schedule: Q07DX005 (ip), vehicle: saline with Tween-80
[5] = endpoint: median tumor weight (est.), dose: 25.0 mg/kg/injection, schedule: Q07DX005 (ip), vehicle: saline with Tween-80
[6] = endpoint: median tumor weight (est.), dose: 50.0 mg/kg/injection, schedule: Q07DX005 (ip), vehicle: saline with Tween-80
[7] = endpoint: median tumor weight (est.), dose: 100.0 mg/kg/injection, schedule: Q07DX005 (ip), vehicle: saline with Tween-80
[8] = endpoint: median tumor weight (est.), dose: 200.0 mg/kg/injection, schedule: Q07DX005 (ip), vehicle: saline with Tween-80
[9] = endpoint: median tumor weight change, dose: 125.0 mg/kg/injection, schedule: Q01DX001 (ip), vehicle: saline with Tween-80
[10] = endpoint: median tumor weight change, dose: 250.0 mg/kg/injection, schedule: Q01DX001 (ip), vehicle: saline with Tween-80
[11] = endpoint: median tumor weight change, dose: 500.0 mg/kg/injection, schedule: Q01DX001 (ip), vehicle: saline with Tween-80

## Cc1cc(O)c(N=Nc2ccc(C(=O)O)cc2)cc1C
endpoint: mean tumor weight (est.), dose: 200.0 mg/kg/injection, schedule: Q07DX001 (ip), vehicle: carboxymethylcellulose (CMC)
  T/C: 82 % of control
endpoint: mean tumor weight (est.), dose: 400.0 mg/kg/injection, schedule: Q07DX001 (ip), vehicle: carboxymethylcellulose (CMC)
  T/C: 74 % of control
endpoint: mean tumor weight, dose: 100.0 mg/kg/injection, schedule: Q07DX007 (ip), vehicle: saline
  T/C: 106 % of control
endpoint: mean tumor weight, dose: 200.0 mg/kg/injection, schedule: Q07DX007 (ip), vehicle: saline
  T/C: 20 % of control
endpoint: mean tumor weight, dose: 400.0 mg/kg/injection, schedule: Q07DX007 (ip), vehicle: saline
  T/C: 35 % of control
endpoint: median tumor weight (est.), dose: 25.0 mg/kg/injection, schedule: Q07DX005 (ip), vehicle: suspension in saline
  T/C: 98 % of control
endpoint: median tumor weight (est.), dose: 50.0 mg/kg/injection, schedule: Q07DX005 (ip), vehicle: suspension in saline
  T/C: 90 % of control
endpoint: median tumor weight (est.), dose: 100.0 mg/kg/injection, schedule: Q07DX005 (ip), vehicle: suspension in saline
  T/C: 98 % of control
endpoint: median tumor weight (est.), dose: 200.0 mg/kg/injection, schedule: Q07DX005 (ip), vehicle: suspension in saline
  T/C: 108 % of control
endpoint: median tumor weight (est.), dose: 400.0 mg/kg/injection, schedule: Q07DX005 (ip), vehicle: suspension in saline
  T/C: 98 % of control

## NC(CCC(=O)NC(CS)C(=O)NCC(=O)O)C(=O)O (stereo unspecified)
endpoint: median tumor weight change, dose: 125.0 mg/kg/injection, schedule: Q01DX001 (ip), vehicle: saline
  T/C: 74 % of control
endpoint: median tumor weight change, dose: 500.0 mg/kg/injection, schedule: Q01DX001 (ip), vehicle: saline
  T/C: 82 % of control

## O=C1N(CC2CO2)CCN1CC1CO1 (stereo unspecified)
endpoint: median tumor weight change, dose: 125.0 mg/kg/injection, schedule: Q01DX001 (ip), vehicle: suspension in saline
  T/C: 30 % of control

## COc1cc(OC)c(OC)cc1/C=C\c1ccnc2ccccc12
[1]
  T/C: 86 % of control
[2]
  T/C: 55 % of control
[3]
  T/C: 78 % of control

## CCCCc1ccc2nc(NC(=O)OC)[nH]c2c1
endpoint: mean tumor weight, dose: 12.5 mg/kg/injection, schedule: Q07DX006 (ip), vehicle: saline with Tween-80
  T/C: 196 % of control
endpoint: mean tumor weight, dose: 100.0 mg/kg/injection, schedule: Q07DX006 (ip), vehicle: saline with Tween-80
  T/C: 120 % of control
endpoint: mean tumor weight, dose: 200.0 mg/kg/injection, schedule: Q07DX006 (ip), vehicle: saline with Tween-80
  T/C: 161 % of control
endpoint: mean tumor weight, dose: 400.0 mg/kg/injection, schedule: Q07DX006 (ip), vehicle: saline with Tween-80
  T/C: 67 % of control
[4]
  T/C: 55 % of control
[5]
  T/C: 61 % of control
[6]
  T/C: 122 % of control
[7]
  T/C: 84 % of control
[8]
  T/C: 49 % of control

## CN=C(N)N/N=C(\C)c1ccc2c(c1)Cc1cc(/C(C)=N/NC(N)=NC)ccc1-2
endpoint: median tumor weight change, dose: 7.5 mg/kg/injection, schedule: Q01DX001 (ip), vehicle: saline with Tween-80
  T/C: 112 % of control
endpoint: median tumor weight change, dose: 15.0 mg/kg/injection, schedule: Q01DX001 (ip), vehicle: saline with Tween-80
  T/C: 102 % of control

## C/C=C/c1cc2c(c(=O)o1)C(=O)[C@@H](O)[C@H](C)O2
[4]
  T/C: 89 % of control
[5]
  T/C: 87 % of control
[6]
  T/C: 102 % of control
[7]
  T/C: 77 % of control
[8]
  T/C: 82 % of control

## N#CCCSC(=S)C1CCCC1=N (stereo unspecified)
[9]
  T/C: 44 % of control
[10]
  T/C: 98 % of control
[11]
  T/C: 86 % of control and 108 % of control

## O=c1c(O)c(-c2ccc(O)c(O)c2)oc2cc(O)cc(O)c12
endpoint: median tumor weight (est.), dose: 25.0 mg/kg/injection, schedule: Q07DX005 (ip), vehicle: other
  T/C: 52 % of control
endpoint: median tumor weight (est.), dose: 50.0 mg/kg/injection, schedule: Q07DX005 (ip), vehicle: other
  T/C: 114 % of control
endpoint: median tumor weight (est.), dose: 100.0 mg/kg/injection, schedule: Q07DX005 (ip), vehicle: other
  T/C: 98 % of control
endpoint: median tumor weight (est.), dose: 400.0 mg/kg/injection, schedule: Q07DX005 (ip), vehicle: other
  T/C: 49 % of control

## CC1CN=C(c2ccc(NC(=O)c3ccc(C(=O)Nc4ccc(C5=NCC(C)N5)cc4)cc3)cc2)N1 (stereo unspecified)
[1]
  T/C: 51 % of control
[2]
  T/C: 94 % of control
[3]
  T/C: 36 % of control

## C[C@]12C=CC(=O)C=C1CC[C@@H]1[C@@H]2C(=O)C[C@@]2(C)[C@H]1CC[C@]2(O)C(=O)CO
endpoint: mean tumor weight, dose: 25.0 mg/kg/injection, schedule: Q01DX009 (ip), vehicle: saline
  T/C: 173 % of control
endpoint: mean tumor weight, dose: 37.5 mg/kg/injection, schedule: Q07DX006 (ip), vehicle: saline
  T/C: 37 % of control
endpoint: mean tumor weight, dose: 75.0 mg/kg/injection, schedule: Q07DX005 (ip), vehicle: saline
  T/C: 93 % of control
endpoint: mean tumor weight, dose: 75.0 mg/kg/injection, schedule: Q07DX006 (ip), vehicle: saline
  T/C: 42 % of control
endpoint: mean tumor weight, dose: 75.0 mg/kg/injection, schedule: Q07DX007 (ip), vehicle: saline
  T/C: 10 % of control
endpoint: mean tumor weight, dose: 100.0 mg/kg/injection, schedule: Q01DX009 (ip), vehicle: saline
  T/C: 61 % of control
endpoint: mean tumor weight, dose: 150.0 mg/kg/injection, schedule: Q07DX005 (ip), vehicle: saline
  T/C: 95 % of control
endpoint: mean tumor weight, dose: 150.0 mg/kg/injection, schedule: Q07DX006 (ip), vehicle: saline
  T/C: 23 % of control
endpoint: mean tumor weight, dose: 200.0 mg/kg/injection, schedule: Q07DX005 (ip), vehicle: saline
  T/C: 9 % of control
endpoint: mean tumor weight, dose: 300.0 mg/kg/injection, schedule: Q07DX006 (ip), vehicle: saline
  T/C: 6 % of control
endpoint: mean tumor weight, dose: 400.0 mg/kg/injection, schedule: Q07DX005 (ip), vehicle: saline
  T/C: 21 % of control
endpoint: mean tumor weight, dose: 800.0 mg/kg/injection, schedule: Q07DX005 (ip), vehicle: saline
  T/C: 1 % of control
[2]
  T/C: 33 % of control
[3]
  T/C: 26 % of control
endpoint: median tumor weight (est.), dose: 400.0 mg/kg/injection, schedule: Q07DX005 (ip), vehicle: Klucel (hydroxypropylcellulose) (HPC)
  T/C: 15 % of control
endpoint: median tumor weight (est.), dose: 800.0 mg/kg/injection, schedule: Q07DX005 (ip), vehicle: Klucel (hydroxypropylcellulose) (HPC)
  T/C: 13 % of control

## C/C(=N\NC(N)=O)c1cccc(/C(C)=N/NC(N)=O)n1
endpoint: median tumor weight change, dose: 62.5 mg/kg/injection, schedule: Q01DX001 (ip), vehicle: saline with Tween-80
  T/C: 64 % of control
[9]
  T/C: 53 % of control
[10]
  T/C: 48 % of control

## Oc1c(Cl)cc(Cl)cc1C1N2CCCCC2C2c3cccn3-c3ccccc3N21 (stereo unspecified)
[9]
  T/C: 69 % of control
[10]
  T/C: 85 % of control
[11]
  T/C: 58 % of control
endpoint: median tumor weight change, dose: 1000.0 mg/kg/injection, schedule: Q01DX001 (ip), vehicle: saline with Tween-80
  T/C: 68 % of control
endpoint: median tumor weight change, dose: 2000.0 mg/kg/injection, schedule: Q01DX001 (ip), vehicle: saline with Tween-80
  T/C: 79 % of control

## CN1CCN(CCCN2c3ccccc3Sc3ccc(C(F)(F)F)cc32)CC1
endpoint: median tumor weight (est.), dose: 6.25 mg/kg/injection, schedule: Q07DX005 (ip), vehicle: saline with Tween-80
  T/C: 178 % of control
endpoint: median tumor weight (est.), dose: 6.25 mg/kg/injection, schedule: Q07DX005 (ip), vehicle: saline
  T/C: 183 % of control
[4]
  T/C: 202 % of control
endpoint: median tumor weight (est.), dose: 12.5 mg/kg/injection, schedule: Q07DX005 (ip), vehicle: saline
  T/C: 97 % of control
[5]
  T/C: 65 % of control
endpoint: median tumor weight (est.), dose: 25.0 mg/kg/injection, schedule: Q07DX005 (ip), vehicle: saline
  T/C: 108 % of control
endpoint: median tumor weight (est.), dose: 50.0 mg/kg/injection, schedule: Q07DX005 (ip), vehicle: saline
  T/C: 162 % of control
[7]
  T/C: 95 % of control
endpoint: median tumor weight (est.), dose: 100.0 mg/kg/injection, schedule: Q07DX005 (ip), vehicle: saline
  T/C: 70 % of control

## CC[C@H]1CN2CCc3cc(OC)c(OC)cc3[C@@H]2C[C@@H]1C[C@@H]1c2cc(OC)c(OC)cc2CCN1CCN(CCCl)CCCl
endpoint: mean tumor weight, dose: 2.5 mg/kg/injection, schedule: Q07DX005 (ip), vehicle: Klucel (hydroxypropylcellulose) (HPC)
  T/C: 195 % of control
endpoint: mean tumor weight, dose: 5.0 mg/kg/injection, schedule: Q07DX005 (ip), vehicle: Klucel (hydroxypropylcellulose) (HPC)
  T/C: 181 % of control
endpoint: mean tumor weight, dose: 5.0 mg/kg/injection, schedule: Q07DX006 (ip), vehicle: Klucel (hydroxypropylcellulose) (HPC)
  T/C: 89 % of control
endpoint: mean tumor weight, dose: 10.0 mg/kg/injection, schedule: Q07DX005 (ip), vehicle: Klucel (hydroxypropylcellulose) (HPC)
  T/C: 160 % of control
endpoint: mean tumor weight, dose: 10.0 mg/kg/injection, schedule: Q07DX006 (ip), vehicle: Klucel (hydroxypropylcellulose) (HPC)
  T/C: 169 % of control
endpoint: mean tumor weight, dose: 20.0 mg/kg/injection, schedule: Q07DX006 (ip), vehicle: Klucel (hydroxypropylcellulose) (HPC)
  T/C: 159 % of control

Source: PubChem BioAssay AID220 (DTP/NCI, 2004)
